Laboratory results as given in patent US4292249A, “25-Hydroxy-24-oxocholestane derivatives and preparation thereof” (priority 1979, dated 1981).

Experiments:
[1] = tested on: calcium absorption at the intestinal tube; assay: Effect to promote calcium absorption from the intestinal tract (everted gut sac method); assay type: in vivo, Wistar male rats; details: vitamin D-deficient rats, 250 ng/head intravenously, measured 4, 8, 24 and 48 hour later
Protocol: They were killed 4 hour, 8 hour, 24 hour and 48 hour later, and calcium absorption at the intestinal tube was measured by the everted gut sac method [see Martin, D. L. and Deluca, H. F., Amer, J. Physiol.

[2] = molecular target: T1, 1α,25-dihydroxy cholecalciferol-receptor in the chick's intestinal tube (Gallus gallus, UniProt O42392); assay: Combination (binding) with the 1α,25-dihydroxy cholecalciferol-receptor, competitive displacement
T1 construct: 1α,25-dihydroxy cholecalciferol-receptor in the chick's intestinal tube; from tissue; host or cells: chick intestine
T1 sequence (O42392 1-451): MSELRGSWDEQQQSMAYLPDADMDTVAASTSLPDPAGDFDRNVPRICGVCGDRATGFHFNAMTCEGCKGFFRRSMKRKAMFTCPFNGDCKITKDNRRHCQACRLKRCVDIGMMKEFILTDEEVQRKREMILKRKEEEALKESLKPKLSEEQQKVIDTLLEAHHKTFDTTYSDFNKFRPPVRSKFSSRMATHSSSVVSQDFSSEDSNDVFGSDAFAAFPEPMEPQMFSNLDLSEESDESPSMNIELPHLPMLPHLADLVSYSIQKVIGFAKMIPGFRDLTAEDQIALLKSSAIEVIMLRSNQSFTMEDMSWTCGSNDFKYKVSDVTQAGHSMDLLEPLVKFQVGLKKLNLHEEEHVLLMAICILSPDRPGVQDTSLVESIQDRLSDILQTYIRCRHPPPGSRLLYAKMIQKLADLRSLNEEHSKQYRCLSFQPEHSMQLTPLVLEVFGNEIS

## C=C1CC[C@H](O)C/C1=C/C=C1\CCC[C@]2(C)[C@@H]([C@H](C)CCC(=O)C(C)(C)O)CC[C@@H]12 [25-hydroxy-24-oxo-cholecalciferol, 25-hydroxy-24-oxocholecalciferol]
[1]
  time after administration at which the effect on intestinal calcium absorption showed: about 4 hours
  time for which the effect on intestinal calcium absorption continued: 44 h

## C=C1/C(=C\C=C2/CCC[C@]3(C)[C@@H]([C@H](C)CCC(=O)C(C)(C)O)CC[C@@H]23)C[C@@H](O)C[C@@H]1O [1α,25-dihydroxy-24-oxo-cholecarciferol, 1α,25-dihydroxy-24-oxo cholecalciferol]
[2]; chick intestinal receptor
  50% Displacement: 138 pg
[2]; relative to 1α,25-dihydroxy cholecalciferol = 1
  Molar ratio: 3
